Data on one compound can be found in patent US8067422B2, “Crystal form of phenylamino pyrimidine derivatives” (Natco Pharma Limited, priority 2008, dated 2011).

Data set [1] concerns K562 cells. The data set is described as follows: Spleenic enlargement and spleen Crk immunocytochemistry in K562 implanted nude mice. Type of data set: in vivo. Conditions: ip injections. The protocol:
Control mice were sacrificed on day 42 when secondary leukemia symptoms were observed, such as abdominal swelling and lack of circulation in the peripherals causing loss of digits with red spots under the skin surface. Spleen and any secondary tumors were harvested, fixed in formaldehyde and paraffin embedded as per standard protocols. Paraffin section were obtained and processed for immunocytochemistry. The rehydrated sections were treated with 0.3% H2O2 to inactivate any native peroxidases prior to immuno-probing. The sections were blocked with filter sterilized (0.22 μm) 1% BSA-PBS at room temperature for 1 h. Following blocking, the sections were immuno-probed with a human specific anti-Crk monoclonal primary antibody raised in rabbit against a synthetic peptide corresponding to residues in the SH2 domain, near the N-term of human CrkL protein (Abcam, Cambridge, Mass., USA) in 1% BSA-PBS overnight. Secondary antibody (anti-rabbit) conjugated to HRP was used to detect the presence of primary antibody. The sections were briefly rinsed three times in PBS solution after immuno-probing with secondary antibody, and DAB HRP substrate was added per manufacture's instructions (Sigma St Louis Mo. USA). The reaction was allowed to proceed until sharp contrast between positive and negative controls was observed. For negative controls primary antibody were eliminated. Leukemic mice spleen served as positive controls.
Mice were sacrificed after a decrease in LGI was observed and spleen harvested. […] Control mice also developed random subcutaneous tumors showing Crk expression, indicative of the presence of K562 cells.

Data set [2] deals with K562 luc human leukemia cells. The data set is described as follows: Luciferase expression in nude mice implanted with K562 luc cells, low dose oral administration. Type of data set: in vivo. The protocol:
Five mice were used per group and divided into 24 groups+2 control. All groups were implanted with K562 normal/luc cells. Of the 24 groups, 12 were used for luciferase studies whereas the other 12 were used for blood smear count studies.
Drugs were administered by oral gavage (2% gum acacia and 2% SLS in an aqueous suspension).

The test system of data set [3] is 4910 glioma cells. Nature of the data set: Matrigel invasion assay (modified Boyden chamber), 4910. Type of data set: cell-based, human. The protocol: (§1) The in vitro invasiveness of 4910, 5310 and U87 glioma cells and MDAMB231 and ZR71 breast cancer cells in the presence of specified concentrations of compounds were assessed using a modified Boyden chamber assay. Cells were treated with these compounds for 48 h. 1×10^6 cells were suspended in 600 μl of serum-free medium supplemented with 0.2% BSA and placed in the upper compartment of the transwell chambers (Corning Costar Fischer Scientific Cat #07-200-158, Pittsburgh Pa.) coated with Matrigel (0.7 mg/ml). The lower compartment of the chamber was filled with 200 μl of serum medium and the cells were allowed to migrate for 24 h. After incubation, the cells were fixed and stained with Hema-3 and quantified as previously described (Mohanam et al. 1993). The migrated cells were imaged microscopically to determine the reduction in invasiveness induced by the compounds of this invention.

For data set [4], the system named is 5310 glioma cells. The data set is described as follows: Matrigel invasion assay (modified Boyden chamber), 5310. The settings on record: 5310. Type of data set: cell-based. As for the experimental part:
as §1

Data set [5] is described as follows: in vivo. The settings on record: mouse.

“Also recorded” adds a separate entry of the source.

Regarding `Cc1ccc(NC(=O)c2cc(C(F)(F)F)cc(C(F)(F)F)c2)cc1Nc1nccc(-c2cccnc2)n1` [AN019, (3,5-bis trifluoromethyl)-N-[4-methyl-3-(4-pyridin-3yl-pyrimidin-2ylamino)-phenyl]-benzamide], the “Crk expression in spleen (immunohistochemistry)” value in data set [1] was “basal levels of Crk expression; also recorded: only basal level expression”. Further, the “Spleenic enlargement (gross observation)” value in data set [1] is given as “did not show any spleenic enlargement”. Further, the Luciferase expression result in data set [2] (1 mg/kg) was “did not induce a decrease in luciferase expression”; in data set [2] (5 mg/kg), “fixation of leukemia cells at constant expression levels”; in data set [2] (10 mg/kg), “decrease in luciferase expression”; in data set [2] (20 mg/kg), “decrease in luciferase expression”. Further, the “±Change in invasion after radiation” value was −27% in data set [3] (4910) and “+1%” in data set [4]. Further, the “+Radiation % Invasion” value in data set [3] (4910, with radiation, 48 h treatment) is reported as 15%. The compound further returned an MTD in data set [5] of 500 mg/kg.
